Laboratory results reported in US8476062B2, “Biosensor method and system based on feature vector extraction” (priority 2005, dated 2013).
Values joined by “and” are separate entries in the source; they are usually repeats but may differ in a detail not shown here. Equal values may be shown once. Read-outs that look alike come from different tables or passages of the source.

How the values were obtained:
[1] = test system: Clinch River samples (naturally-occurring photosynthetic organisms); assay: Toxic agent detection by fluorescence induction, Clinch River samples; format: cell-based
Description: (§1) Fluorescence induction data set of normal primary-source drinking water samples as well as samples exposed to four different toxic agents at different concentrations were collected. The control and toxic-agent-exposed fluorescence induction data were taken every 5 minutes after the dark adaptation for 15 minutes. • 20 μM DCMU, • 5 mM/10 mM KCN, • 40 μM/60 μM MPt, and • 225 μM Paraquat. Experiment 1—Toxic Agent Detection
(§2) The objective of the first experiment performed was to evaluate the performance of the inventive methodology in detecting the presence of toxic agents. FIGS. 12-23 show the extracted features (including PSII, amplitude statistics, and wavelet coefficient statistical features) of each specific toxic agent as functions of time. The toxic agents were added into the samples at time 0, therefore, the signals with negative time index correspond to the control data and the signals during the positive time period are the agent-exposed data collected from either the Clinch River samples or the lab-grown Chlamydomonas reinhardtii samples. At each time moment, three samples were collected and feature values calculated. The mean and standard deviation of these three values are used to illustrate the performance curve at that time moment. To examine the change of feature values over time, the signal collected at time 0 as reference was chosen and yield at each time moment calculated (feature at time t−feature at time 0)/feature at time 0. The following notations are used to describe these performance curves: • μc(t), σc(t): the mean and the standard deviation of the feature values derived from the three control samples collected at moment t (with a negative time index) • μe(t), σe(t): the mean and the standard deviation of the feature values derived from the three exposure samples collected at moment t (with a positive time index)
(§3) In order to quantitatively evaluate the effectiveness of each feature in differentiating between the control and the exposure signals of different toxic agents, two metrics are introduced: the Fisher criterion and the average confidence level. The Fisher criterion originates from pattern classification (Duda, et al., 2001) where a linear projection is pursued in order to best separate two classes. In this work, the definition of Fisher criterion is used to quantify different performance curves in differentiating between the control and the exposure signals. In general, the Fisher criterion looks for the feature that maximizes the difference between the mean value of feature derived from the control and the exposed signal while minimizing the variance among them, as formulated below: […]
(§4) Table 1 lists the value of the Fisher criterion to evaluate the effect of using different features for agent detection. In both Table 1 and Table 2 “Clinch” refers to Clinch River samples and “Chlamy” to lab-grown Chlamydomonas reinhardtii samples. It can be seen from Table 1 below that the first-order amplitude statistics (mean) gives the best metric evaluation for most of the toxic agents, while the wavelet analysis, the standard deviation and the skewness in amplitude statistics also contribute to the differentiation between control and exposure signals in some cases.

[2] = test system: lab-grown Chlamydomonas reinhardtii; assay: Toxic agent detection by fluorescence induction, lab-grown Chlamydomonas reinhardtii samples; format: cell-based
Description: as §1, §2, §3, §4

CN(C)C(=O)Nc1ccc(Cl)c(Cl)c1 [DCMU, Diuron]
Fisher criterion (control vs exposure signals), Amplitude Statistics Kurtosis ([1]; Clinch, 20 μM DCMU): 71.3140
Fisher criterion (control vs exposure signals), Amplitude Statistics Mean ([1]; Clinch, 20 μM DCMU): 356.4241
Fisher criterion (control vs exposure signals), Amplitude Statistics Skewness ([1]; Clinch, 20 μM DCMU): 64.7360
Fisher criterion (control vs exposure signals), PSII ([1]; Clinch, 20 μM DCMU): 62.8073
Fisher criterion (control vs exposure signals), Wavelet Coefficient Energy ([1]; Clinch, 20 μM DCMU): 93.8024
Fisher criterion (control vs exposure signals), Wavelet Coefficient Mean ([1]; Clinch, 20 μM DCMU): 37.3350
Fisher criterion (control vs exposure signals), Amplitude Statistics Kurtosis ([2]; Chlamy, 20 μM DCMU): 242.9
Fisher criterion (control vs exposure signals), Amplitude Statistics Mean ([2]; Chlamy, 20 μM DCMU): 2111.9
Fisher criterion (control vs exposure signals), Amplitude Statistics Skewness ([2]; Chlamy, 20 μM DCMU): 835.9
Fisher criterion (control vs exposure signals), PSII ([2]; Chlamy, 20 μM DCMU): 63.9
Fisher criterion (control vs exposure signals), Wavelet Coefficient Energy ([2]; Chlamy, 20 μM DCMU): 8.2
Fisher criterion (control vs exposure signals), Wavelet Coefficient Mean ([2]; Chlamy, 20 μM DCMU): 5.3

C[n+]1ccc(-c2cc[n+](C)cc2)cc1 [Paraquat]
Fisher criterion (control vs exposure signals), Amplitude Statistics Kurtosis ([1]; Clinch, 225 μM Paraquat): 13.0980
Fisher criterion (control vs exposure signals), Amplitude Statistics Mean ([1]; Clinch, 225 μM Paraquat): 0.6992
Fisher criterion (control vs exposure signals), Amplitude Statistics Skewness ([1]; Clinch, 225 μM Paraquat): 21.8997
Fisher criterion (control vs exposure signals), PSII ([1]; Clinch, 225 μM Paraquat): 40.3550
Fisher criterion (control vs exposure signals), Wavelet Coefficient Energy ([1]; Clinch, 225 μM Paraquat): 121.8164
Fisher criterion (control vs exposure signals), Wavelet Coefficient Mean ([1]; Clinch, 225 μM Paraquat): 88.1866
Fisher criterion (control vs exposure signals), Amplitude Statistics Kurtosis ([2]; Chlamy, 225 μM Paraquat): 0.5380
Fisher criterion (control vs exposure signals), Amplitude Statistics Mean ([2]; Chlamy, 225 μM Paraquat): 9.2416
Fisher criterion (control vs exposure signals), Amplitude Statistics Skewness ([2]; Chlamy, 225 μM Paraquat): 0.1661
Fisher criterion (control vs exposure signals), PSII ([2]; Chlamy, 225 μM Paraquat): 33.4259
Fisher criterion (control vs exposure signals), Wavelet Coefficient Energy ([2]; Chlamy, 225 μM Paraquat): 15.7150
Fisher criterion (control vs exposure signals), Wavelet Coefficient Mean ([2]; Chlamy, 225 μM Paraquat): 7.4516

COP(=S)(OC)Oc1ccc([N+](=O)[O-])cc1 [MPt, methyl parathion]
Fisher criterion (control vs exposure signals), Amplitude Statistics Mean [1]: 9.9401 and 5.1574
Fisher criterion (control vs exposure signals), Wavelet Coefficient Energy [1]: 258.6794 and 159.3636
Fisher criterion (control vs exposure signals), Wavelet Coefficient Mean [1]: 148.3582 and 75.2339
Fisher criterion (control vs exposure signals), Amplitude Statistics Mean [2]: 15.3435 and 20.3104
Fisher criterion (control vs exposure signals), PSII [2]: 7.8844 and 11.7760
Fisher criterion (control vs exposure signals), Wavelet Coefficient Energy [2]: 29.3503 and 29.5307
Fisher criterion (control vs exposure signals), Wavelet Coefficient Mean [2]: 15.7935 and 22.2547
